Test results published in ChEMBL document CHEMBL3217640, “Labile natural products” (Medchemcomm, 2012).

Tests used:
[1] = system: Mus musculus; assay: Toxicity in po dosed mouse; type: organism-based; details: in vivo
[2] = system: Rattus norvegicus; assay: Antiinflammatory activity in Wistar rat assessed as inhibition of heat-killed Mycobacterium butyricum-induced paw swelling at 10 mg/kg, po administered on day 10 to 15 measured everyday of compound dosing by plethysmometer relative to control; type: functional; details: 240 h

| SMILES | LD100 [1] | inhibition in vivo at 10 mg/kg [2] |
| --- | --- | --- |
| O=C(O)C1C=C1 | 2.5 mg/kg |  |
| CCCCCc1oc(CCCCCCCCCCC(=O)OCC)c(C)c1C |  | 74% |
